In article PMC11042424, “Development of a First-in-Class RIPK1 Degrader to Enhance Antitumor Immunity” (Research Square, 2024):
Read-outs that look alike come from different tables or passages of the source.

Key:
[1] = Stability in human primary hepatocytes; format: in vitro ADME
[2] = Stability in human liver S9 fractions; format: in vitro ADME
[3] = Pharmacokinetics in C57BL/6J mice; format: in vivo; details: mouse, plasma
Protocol: Next, we evaluated the pharmacokinetics (PK) of LD4172 in C57BL/6J (B6) mice (Fig. 4A).
Figure 4 LD4172 synergizes with Anti-PD1 to inhibit tumor growth. A, Plasma concentrations of LD4172 in C57BL/6J mice administered 1 mg/kg intravenously (i.v.) or 10 mg/kg intraperitoneally (i.p.) (n=4). B, Representative immunoblots of RIPK1 in different tissues of C57BL/6J mice treated with LD4172 (n=3–4). C, Densitometric analysis of RIPK1 protein levels in different tissues (n=3 or 4). D, Representative immunoblots of RIPK1 levels of B16F10 cells transduced with gRNA specific for RIPK1 or non-targetable control (sgNC). E, B16F10-RIPK1-KO tumors sensitized to anti-PD1 treatment: 3×10^5 B16F10 cells transduced with gRNA specific for RIPK1 or non-targetable control (sgNC) were inoculated into C57BL/6J mice. After seven days, mice with measurable tumors (~100 mm3) were randomly treated with or without anti-PD1 in vivo (100 μg per dose, i.p., every three days, n=8). F, Tumor growth curve of mice with B16F10 tumors treated with LD4172 and/or anti-PD1 (n=8). C57B6/J mice were subcutaneously inoculated with 3×10^5 B16F10 tumor cells. After seven days (tumor size ~ 100 mm3), mice were treated every three days with anti- PD1 (100 μg per dose, i.p.), daily with LD4172 (20 mg/kg, i.p.), a combination of LD4172 and anti-PD1 (same dose as their individual doses), or their corresponding vehicle control. G, Kaplan-Meier survival curve for all experimental groups. H, Final tumor weight (g) from F after 22d of treatment (n=8). I, Representative images of B16F10 tumors collected at the end of treatment. J, Mouse body weight (n=8). K, Tumor growth curve of mice with B16F10 tumors treated with T2I and/or anti-PD1 (n=8). The experimental conditions and treatment regimens were the same as F except using the RIPK1 kinase inhibitor T2I (20 mg/kg, i.p.) to replace LD4172. Representative data from at least three independent experiments are shown. Data are expressed as the mean ± SEM. * p<0.05; ** p<0.01; *** p<0.001, **** p<0.0001, respectively. ns, indicates no statistical significance.

Cc1ncsc1-c1ccc([C@H](C)NC(=O)[C@@H]2C[C@@H](O)CN2C(=O)[C@@H](NC(=O)CCCCCCCCCCC(=O)NCCCn2cc(-c3ccc4c(c3)CCN4C(=O)Cc3cccc(OC(F)(F)F)c3)c3c(N)ncnc32)C(C)(C)C)cc1 [LD4172]
half-life [1]: 56.3 min | half-life [2]: 21.1 min | intrinsic clearance (CLint) [2]: 32.8 μL·min^− 1·mg^− 1 protein | bioavailability ([3]; intraperitoneal, i.p. 10 mg/kg vs i.v. 1 mg/kg): 39% | AUC ([3]; ip, 10 mg/kg i.p., read-out: AUC): 2.7 µM·h | Cmax ([3]; ip, 10 mg/kg i.p., read-out: Cmax): 2.9 µM | half-life ([3]; ip, 10 mg/kg i.p., read-out: t1/2 (converted)): 90 min | clearance ([3]; iv, 1 mg/kg i.v.): 19.8 ± 1.8 mL/min/kg | AUC ([3]; iv, 1 mg/kg i.v., read-out: area under the concentration-time curve (AUC)): 0.7 ± 0.07 µM·h | half-life ([3]; iv, 1 mg/kg i.v., read-out: half-life (t1/2) (converted)): 198 ± 126 min | Cmax ([3]; iv, 1 mg/kg i.v., read-out: maximum plasma concentration (Cmax)): 6.3 ± 0.8 µM | Vd ([3]; iv, 1 mg/kg i.v., read-out: volume of distribution (Vd)): 1.1 ± 0.2 L/kg
